{
  "source": "PubChem BioAssay AID1259411",
  "about": "(Chemical Carcinogenesis Research Information System (CCRIS), 2018)",
  "test_system": "rodent carcinogenicity bioassays, tumor incidence",
  "assay": "CCRIS carcinogenicity studies",
  "in_short": "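Archive of carcinogenicity, mutagenicity, tumor promotion and tumor inhibition results drawn from journals, NCI reports and other sources, expert-reviewed; covers 1985-2011 and is no longer updated.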",
  "note": "The source made the active and inactive calls. No rule for the calls is given here.",
  "data": [
    {"compound": "c1ccc2c(c1)[nH]c1ccccc12", "values": [
      {"measurement": "carcinogen call", "setting": "Species: MOUSE, Strain/Sex: B6C3F1/FEMALE, Route: ORAL, Dose: 0.15, 0.3, 0.6% IN DIET FOR 96 WK, Dose: 0.15, 0.3, 0.6% IN DIET FOR 96 WK, Tumor Site: Type of Lesion: LIVER: HEPATOCELLULAR CARCINOMA", "value": "active; positive"},
      {"measurement": "carcinogen call", "setting": "Species: MOUSE, Strain/Sex: B6C3F1/MALE, Route: ORAL, Dose: 0.15, 0.3, 0.6% IN DIET FOR 96 WK, Dose: 0.15, 0.3, 0.6% IN DIET FOR 96 WK, Tumor Site: Type of Lesion: FORESTOMACH: PAPILLOMA, SQUAMOUS CELL CARCINOMA, LIVER: HEPATOCELLULAR CARCINOMA", "value": "active; positive"},
      {"measurement": "carcinogen call", "setting": "Species: MOUSE, Strain/Sex: CD-1/FEMALE, Route: INTRAPERITONEAL, Dose: 0, 1.75 UMOL/MOUSE (TOTAL DOSE) ADMINISTERED DURING DAYS 1, 8, AND 15 OF LIFE (STUDY DURATION: 52 WK)", "value": "inactive; negative"},
      {"measurement": "carcinogen call", "setting": "Species: MOUSE, Strain/Sex: CD-1/MALE, Route: INTRAPERITONEAL, Dose: 0, 1.75 UMOL/MOUSE (TOTAL DOSE) ADMINISTERED DURING DAYS 1, 8, AND 15 OF LIFE (STUDY DURATION: 52 WK)", "value": "inactive; negative"}
    ]},
    {"compound": "CCCI", "values": [
      {"measurement": "carcinogen call", "setting": "Species: MOUSE, Route: INTRAPERITONEAL, Tumor Site: Type of Lesion: LUNG", "value": "active; positive"}
    ]},
    {"compound": "Nc1nc(N)c2nc(-c3ccccc3)c(N)nc2n1", "values": [
      {"measurement": "carcinogen call", "setting": "Species: MOUSE, Strain/Sex: B6C3F1/FEMALE, Route: ORAL, Dose: 0, 100, 200, 400 PPM IN FEED FOR 104 WK (STUDY DURATION: 2 YR), Dose: 0, 100, 200, 400 PPM IN FEED FOR 104 WK (STUDY DURATION: 2 YR), Tumor Site: Type of Lesion: LIVER: HEPATOCELLULAR ADENOMA", "value": "active; positive"},
      {"measurement": "carcinogen call", "setting": "Species: MOUSE, Strain/Sex: B6C3F1/FEMALE, Route: ORAL, Dose: 0, 400 PPM IN FEED FOR 104 WK (STUDY DURATION: 2 YR), Tumor Site: Type of Lesion: LIVER: HEPATOCELLULAR ADENOMA", "value": "active; positive"},
      {"measurement": "carcinogen call", "setting": "Species: MOUSE, Strain/Sex: B6C3F1/MALE, Route: ORAL, Dose: 0, 100, 200, 400 PPM IN FEED FOR 104 WK (STUDY DURATION: 2 YR), Dose: 0, 100, 200, 400 PPM IN FEED FOR 104 WK (STUDY DURATION: 2 YR), Tumor Site: Type of Lesion: LIVER: HEPATOCELLULAR CARCINOMA", "value": "active; positive"},
      {"measurement": "carcinogen call", "setting": "Species: MOUSE, Strain/Sex: B6C3F1/MALE, Route: ORAL, Dose: 0, 400 PPM IN FEED FOR 104 WK (STUDY DURATION: 2 YR), Tumor Site: Type of Lesion: LIVER: HEPATOCELLULAR ADENOMA", "value": "active; positive"},
      {"measurement": "carcinogen call", "setting": "Species: RAT, Strain/Sex: F344/FEMALE, Route: ORAL, Dose: 0, 150, 300, 600 PPM IN FEED FOR 104 WK (STUDY DURATION: 2 YR), Dose: 0, 150, 300, 600 PPM IN FEED FOR 104 WK (STUDY DURATION: 2 YR)", "value": "inactive; negative"},
      {"measurement": "carcinogen call", "setting": "Species: RAT, Strain/Sex: F344/MALE, Route: ORAL, Dose: 0, 150, 300, 600 PPM IN FEED FOR 104 WK (STUDY DURATION: 105 WK), Dose: 0, 150, 300, 600 PPM IN FEED FOR 104 WK (STUDY DURATION: 105 WK), Tumor Site: Type of Lesion: LIVER: ADENOMA", "value": "equivocal"}
    ]},
    {"compound": "CC1(C)COC1=O", "values": [
      {"measurement": "carcinogen call", "setting": "Species: MOUSE, Strain/Sex: B6C3F1/FEMALE, Route: GAVAGE, Dose: 0, 75, 150 MG/KG, Dose: 0, 75, 150 MG/KG", "value": "inactive; negative"},
      {"measurement": "carcinogen call", "setting": "Species: MOUSE, Strain/Sex: B6C3F1/MALE, Route: GAVAGE, Dose: 0, 75, 150 MG/KG, Dose: 0, 75, 150 MG/KG", "value": "inactive; negative"},
      {"measurement": "carcinogen call", "setting": "Species: RAT, Strain/Sex: F344/FEMALE, Route: GAVAGE, Dose: 0, 150, 300 MG/KG, Dose: 0, 150, 300 MG/KG, Tumor Site: Type of Lesion: STOMACH: SQUAMOUS CELL PAPILLOMA OR SQUAMOUS CELL CARCINOMA, UTERUS: ENDOMETRIAL STROMAL POLYP", "value": "active; positive"},
      {"measurement": "carcinogen call", "setting": "Species: RAT, Strain/Sex: F344/MALE, Route: GAVAGE, Dose: 0, 150, 300 MG/KG, Dose: 0, 150, 300 MG/KG, Tumor Site: Type of Lesion: STOMACH: SQUAMOUS CELL PAPILLOMA OR SQUAMOUS CELL CARCINOMA, TESTES: INTERSTITIAL CELL TUMOR", "value": "active; positive"}
    ]},
    {"compound": "CCC(Br)(CC)C(=O)NC(N)=O", "values": [
      {"measurement": "carcinogen call", "setting": "Species: MOUSE, Strain/Sex: B6C3F1/FEMALE, Route: ORAL, Dose: 0, 1250, 2500 PPM IN DIET, Dose: 0, 1250, 2500 PPM IN DIET", "value": "inactive; negative"},
      {"measurement": "carcinogen call", "setting": "Species: MOUSE, Strain/Sex: B6C3F1/MALE, Route: ORAL, Dose: 0, 1250, 2500 PPM IN DIET, Dose: 0, 1250, 2500 PPM IN DIET", "value": "inactive; negative"},
      {"measurement": "carcinogen call", "setting": "Species: RAT, Strain/Sex: F344/FEMALE, Route: ORAL, Dose: 0, 1250, 2500 PPM IN DIET, Dose: 0, 1250, 2500 PPM IN DIET", "value": "inactive; negative"},
      {"measurement": "carcinogen call", "setting": "Species: RAT, Strain/Sex: F344/MALE, Route: ORAL, Dose: 0, 1250, 2500 PPM IN DIET, Dose: 0, 1250, 2500 PPM IN DIET", "value": "inactive; negative"}
    ]},
    {"compound": "CCOC(=O)N(CC)N=O", "values": [
      {"measurement": "carcinogen call", "setting": "Species: HAMSTER, Strain/Sex: SYRIAN/FEMALE, Route: GAVAGE, Dose: 0, 14 MG/ML ((0.2 ML OF A SOLUTION IN ETHYL ACETATE/CORN OIL (1:2)) 1/WK FOR 28 WK (STUDY DURATION: LIFE SPAN), Tumor Site: Type of Lesion: PANCREAS: CARCINOMA OR ADENOMA, FORESTOMACH: SQUAMOUS CELL CARCINOMA OR PAPILLOMA", "value": "active; positive"},
      {"measurement": "carcinogen call", "setting": "Species: RAT, Strain/Sex: DONRYU/FEMALE, Route: ORAL, Dose: 0, 25, 50, 100 PPM IN DRINKING WATER FOR 60 WK, Dose: 0, 25, 50, 100 PPM IN DRINKING WATER FOR 60 WK, Tumor Site: Type of Lesion: ORAL CAVITY: PAPILLOMA, CARCINOMA, ESOPHAGUS: PAPILLOMA, CARCINOMA, FORESTOMACH: PAPILLOMA, CARCINOMA, DUODENUM: ADENOMA, Tumor Site: Type of Lesion: ORAL CAVITY: PAPILLOMA, CARCINOMA, ESOPHAGUS: PAPILLOMA, CARCINOMA, FORESTOMACH: PAPILLOMA, CARCINOMA, DUODENUM: ADENOMA", "value": "active; positive"},
      {"measurement": "carcinogen call", "setting": "Species: RAT, Strain/Sex: F344/FEMALE, Route: GAVAGE, Dose: 0, 0.36, 1.6 MG/ANIMAL IN CORN OIL 1/WK FOR 20 WK (STUDY DURATION: 114 WK), Dose: 0, 0.36, 1.6 MG/ANIMAL IN CORN OIL 1/WK FOR 20 WK (STUDY DURATION: 114 WK), Tumor Site: Type of Lesion: FORESTOMACH: CARCINOMA, PAPILLOMA OR CARCINOMA", "value": "active; positive"},
      {"measurement": "carcinogen call", "setting": "Species: RAT, Strain/Sex: F344/FEMALE, Route: INTRAVESICULAR, Dose: 0, 0.8 MG 2/WK FOR 14 WK (STUDY DURATION: LIFETIME), Tumor Site: Type of Lesion: BLADDER: TUMOR", "value": "active; positive"},
      {"measurement": "carcinogen call", "setting": "Species: RAT, Strain/Sex: F344/FEMALE, Route: ORAL, Dose: 0, 0.15, 0.6, 2.5, 10 PPM IN DISTILLED WATER FOR 2 YRS (STUDY DURATION: 112 WK), Dose: 0, 0.15, 0.6, 2.5, 10 PPM IN DISTILLED WATER FOR 2 YRS (STUDY DURATION: 112 WK), Tumor Site: Type of Lesion: ORAL CAVITY: PAPILLOMA, CARCINOMA, ESOPHAGUS: PAPILLOMA, CARCINOMA, FORESTOMACH: PAPILLOMA, CARCINOMA, Tumor Site: Type of Lesion: ORAL CAVITY: PAPILLOMA, CARCINOMA, ESOPHAGUS: PAPILLOMA, CARCINOMA, FORESTOMACH: PAPILLOMA, CARCINOMA", "value": "active; positive"}
    ]},
    {"compound": "[O]=[Mo](=[O])=[O]", "values": [
      {"measurement": "carcinogen call", "setting": "Species: MOUSE, Strain/Sex: B6C3F1/FEMALE, Route: INHALATION, Dose: 0, 10, 30, 100 MG/M3 6 HR/D 5 D/WK FOR 105 WK (STUDY DURATION: 105 WK), Dose: 0, 10, 30, 100 MG/M3 6 HR/D 5 D/WK FOR 105 WK (STUDY DURATION: 105 WK), Tumor Site: Type of Lesion: LUNG: ALVEOLAR/BRONCHIOLAR ADENOMA, ALVEOLAR/BRONCHIOLAR ADENOMA OR CARCINOMA", "value": "active; positive"},
      {"measurement": "carcinogen call", "setting": "Species: MOUSE, Strain/Sex: B6C3F1/MALE, Route: INHALATION, Dose: 0, 10, 30, 100 MG/M3 6 HR/D 5 D/WK FOR 105 WK (STUDY DURATION: 105 WK), Dose: 0, 10, 30, 100 MG/M3 6 HR/D 5 D/WK FOR 105 WK (STUDY DURATION: 105 WK), Tumor Site: Type of Lesion: LUNG: ALVEOLAR/BRONCHIOLAR CARCINOMA", "value": "active; positive"},
      {"measurement": "carcinogen call", "setting": "Species: RAT, Strain/Sex: F344/FEMALE, Route: INHALATION, Dose: 0, 10, 30, 100 MG/M3 6 HR/D 5 D/WK FOR 106 WK (STUDY DURATION: 106 WK), Dose: 0, 10, 30, 100 MG/M3 6 HR/D 5 D/WK FOR 106 WK (STUDY DURATION: 106 WK)", "value": "inactive; negative"},
      {"measurement": "carcinogen call", "setting": "Species: RAT, Strain/Sex: F344/MALE, Route: INHALATION, Dose: 0, 10, 30, 100 MG/M3 6 HR/D 5 D/WK FOR 106 WK (STUDY DURATION: 106 WK), Dose: 0, 10, 30, 100 MG/M3 6 HR/D 5 D/WK FOR 106 WK (STUDY DURATION: 106 WK), Tumor Site: Type of Lesion: LUNG: ALVEOLAR/BRONCHIOLAR ADENOMA, ALVEOLAR/BRONCHIOLAR CARCINOMA, ALVEOLAR/BRONCHIOLAR ADENOMA OR CARCINOMA", "value": "equivocal"}
    ]}
  ]
}
